# Assay results reported in article PMC9382192, “Combined treatment with epigenetic agents enhances anti-tumor activity of MAGE-D4 peptide-specific T cells by upregulating the MAGE-D4 expression in glioma” (Frontiers in Oncology, 2022).
# Key:
# [1] = tested on: autologous T cells; details: T cells with peptide-pulsed autologous DCs 10:1, 72 h; versus DCs without peptide
# Experimental: PBMCs were isolated from the peripheral blood samples of 8 HLA-A2^+ healthy donors, with University Ethics Review Committee-approved, written consent. The effector T lymphocytes and DCs were prepared by our published method ([31]). CD8^+ T cells were isolated from PBMCs using CD8^+ negative selection MicroBeads EasySep™ Human CD8^+ T Cell Isolation Kit (17953, stemcell) according to the manufacturers.
# For T-cell stimulation, T cells were cultured with RPMI1640 complete medium containing IL-2 (20 ng/ml) mixed with peptide-pulsed autologous DCs at a ratio of 10:1 and co-cultured for 72 h. The supernatant of DCs and T cells co-cultured for 72h was used to detect IL-2 and γ-IFN. The capacity of peptide-pulsed DCs to stimulate the proliferation of autologous T cells was evaluated using a Cell Counting Kit-8 (CCK-8, Beiltime Biotec, China), as described using our published method ([31]). CCK-8 solution (20 μl/well) was added in 2 h before the end of culture. Then, the optical density (OD) was measured by microplate tester. The stimulation index (SI) is calculated according to the following formula: SI = (experiment well OD value − background OD value)/(blank control well OD value − background OD value).
# [2] = tested on: IL-2; experiment: IL-2 ELISA of DC/T-cell co-culture supernatant; type: cell-based, human; details: 72 h co-culture supernatant, versus negative control peptide
# Experimental: Production of cytokines in the supernatants was determined using commercially available ELISA kits (Cloud-Clone Corporation, Wuhan, China) according to the protocol of the manufacturer. Approximately 50 μl of supernatant and different concentration standards were added and mixed with 100 μl of horseradish peroxidase (HRP) labeled detection antibody against a 96-well plate, respectively, except for the blank control. After incubation at 37°C for 60 min, we washed the plate five times. Add substrate A and substrate B 50 μl respectively, incubate for 15min in a 37°C incubator in dark. Then, 50 μl of stop solution was added and a 450 nm absorbance value (OD value) was measured within 15 min. The regression equation of the standard curve is calculated according to the concentration of the standard substance and the OD value, and the corresponding sample concentration is calculated on the basis of the regression equation.
# [3] = tested on: HLA-A2; experiment: Peptide binding assay on T2 cells; parameters: species or system human; details: 50 µg/ml peptide, 37°C 18 h, FITC anti-HLA-A2 (BB7.2), flow cytometry, FI = (MFI peptide − MFI background)/MFI background
# Experimental: Peptide binding affinity to HLA-A2 was assessed using T2 cells, a cell line that expresses HLA-A2 molecules but is deficient in antigen presentation. […] After incubation, the cells were washed in Phosphate buffered saline (PBS) and further incubated with FITC-conjugated anti-HLA-A2 antibody (BB7.2; BD Biosciences) at 4°C for 45 min. The cells were then washed and re-suspended with 300 µl of PBS and subjected to flow cytometer analysis (FACS Calibur, BD Biosciences). The fluorescence index (FI) was calculated as follows: FI = mean fluorescence intensity (MFI) with the given peptide − MFI without peptide/MFI without peptide.
# [4] = tested on: MAGE-D4 promoter; experiment: Pyrosequencing of MAGE-D4 promoter in U251; type: cell-based, human; details: U251, compared with control group
# Experimental: The human glioma cell lines (U87-MG and U251) were obtained from the Cell Bank of Type Culture Collection of the Chinese Academy of Science (Shanghai, China). […] A3656), valproic acid (VPA, CAS No. 99-66-1), and trichostatin A (TSA, CAS No. 58880-19-6) were purchased from Sigma-Aldrich Corporation (St. Louis, MO, USA). DAC and TSA were dissolved in DMSO to a concentration of 10 mM. Aliquots were stored at -80°C and diluted with media before being used. Drug treatments were divided into seven groups: (1) DAC group: cells were cultured in medium on the presence of 1 μM DAC for 120 h; (2) VPA group: cells were grown in medium containing 1 mM VPA for 120 h; (3) TSA group: cells were cultured in medium supplemented with 1 μM TSA for 24 h; (4) D + V group: cells were cultured with 1 μM DAC and 1 mM VPA for 120 h; (5) D + T group: cells were cultured with 1 μM DAC for 120 h, followed by 1 μM TSA for 24 h; (6) Control group: cells were cultured with 0.09% DMSO, which is the highest concentration of DMSO used in this study in consideration of the potential toxicity of DMSO to living cells. Human recombinant interleukin (IL) IL-2, IL-4, and human recombinant granulocyte/macrophage colony-stimulating factor (GM-CSF) were purchased from R&D Systems. Genomic DNA was isolated from cells using a DNA Isolation Kit (Vazyme, China). The methylation status of the MAGE-D4 promoter in cells was quantified by the PyroMark Q96 ID pyrosequencing platform (Qiagen), which was performed by Shanghai […] Biotech Co., Ltd. The methylation status of each site was analyzed automatically by the accompanying software Pyro Q-CpG (Qiagen). Two regions in the core promoter were detected, which contained 18 CpG sites. Primers used in pyrosequencing were as follows: region 1: [NT] (forward) and [NT] (reverse); region 2: [NT] (forward) and [NT] (reverse). Sequences of the MAGE-D4 promoter and pyrosequencing regions containing CpG sites are listed in Supplemental Materials.
# [5] = tested on: MAGE-D4 promoter; experiment: Pyrosequencing of MAGE-D4 promoter in U87; type: cell-based, human; details: U87, compared with control group
# Experimental: The human glioma cell lines (U87-MG and U251) were obtained from the Cell Bank of Type Culture Collection of the Chinese Academy of Science (Shanghai, China). […] A3656), valproic acid (VPA, CAS No. 99-66-1), and trichostatin A (TSA, CAS No. 58880-19-6) were purchased from Sigma-Aldrich Corporation (St. Louis, MO, USA). DAC and TSA were dissolved in DMSO to a concentration of 10 mM. Aliquots were stored at -80°C and diluted with media before being used. […] The methylation status of the MAGE-D4 promoter in cells was quantified by the PyroMark Q96 ID pyrosequencing platform (Qiagen), which was performed by Shanghai […] Biotech Co., Ltd. The methylation status of each site was analyzed automatically by the accompanying software Pyro Q-CpG (Qiagen). Two regions in the core promoter were detected, which contained 18 CpG sites. […]
# [6] = target: peptide/HLA-A2 complex (Homo sapiens, UniProt P04439, D140Y/D185E/D98H/E176V/E277Q/G131W/G231S/I119V/I121R/I166T/I218V/L300P/L318F/N151K/N90K/P208A/P217A/Q86G/Q94H/R138H/R169H/T345S); experiment: Peptide/HLA-A2 complex stability assay on T2 cells; type: binding; details: 50 μM peptide + β2 microglobulin 2.5 μg/ml, 18 h 37°C, brefeldin A 1 h, read at 0, 2, 4, 6 h, flow cytometry
# Experimental: T2 cells were collected and placed in 24-well plates (1 × 10^6/ml), 1 ml in each well. Predictive peptides (50 μM) and β2 microglobulin (2.5 μg/ml) were added, respectively. […] After the incubation, T2 cells were washed twice with cold PBS to clear the unbound peptide, then brefeldin A (10 μg/m) was added and incubated for 1 h. Then, cells were washed and incubated at 37°C for 0, 2, 4, and 6 h; FITC-labeled mouse anti-human HLA-A2 monoclonal antibody was added and incubated at 4°C for 30 min under dark conditions. The MFI of cells was detected by flow cytometry after washing twice. The results are expressed as dissociation complex 50 (DC50), meaning the time required for the loss of 50% of the stabilized peptide/complex.
# [7] = tested on: U251; experiment: LDH cytotoxicity assay and HLA block, U251; type: cell-based, human; details: DAC + TSA-treated U251, E:T 50:1, 4 h
# Experimental: (§1) The human glioma cell lines (U87-MG and U251) were obtained from the Cell Bank of Type Culture Collection of the Chinese Academy of Science (Shanghai, China). Decitabine (DAC, CAS No. A3656), valproic acid (VPA, CAS No. 99-66-1), and trichostatin A (TSA, CAS No. 58880-19-6) were purchased from Sigma-Aldrich Corporation (St. Louis, MO, USA). DAC and TSA were dissolved in DMSO to a concentration of 10 mM. Aliquots were stored at −80°C and diluted with media before being used. Drug treatments were divided into seven groups: (1) DAC group: cells were cultured in medium on the presence of 1 μM DAC for 120 h; (2) VPA group: cells were grown in medium containing 1 mM VPA for 120 h; (3) TSA group: cells were cultured in medium supplemented with 1 μM TSA for 24 h; (4) D + V group: cells were cultured with 1 μM DAC and 1 mM VPA for 120 h; (5) D + T group: cells were cultured with 1 μM DAC for 120 h, followed by 1 μM TSA for 24 h; (6) Control group: cells were cultured with 0.09% DMSO, which is the highest concentration of DMSO used in this study in consideration of the potential toxicity of DMSO to living cells. Human recombinant interleukin (IL) IL-2, IL-4, and human recombinant granulocyte/macrophage colony-stimulating factor (GM-CSF) were purchased from R&D Systems.
# The cytotoxic activity of MAGE-D4 peptide-specific CTLs to glioma cells was determined according to the instructions of the manufacturers by our published method ([31]). […] Four hours later, suspended cells were collected for CD107a flow cytometry, meanwhile, the supernatant was collected and analyzed with granzyme A and perforin ELISA kit (Cloud-Clone Corporation, Wuhan, China) at 450 nm, and the LDH kit (Promega, USA) at 490 nm. The percentage of specific lysis was calculated using the following formula: [(experimental release − spontaneous release)/(maximum release − spontaneous release)] × 100. […] Then, the cytotoxicity assay was measured and calculated as mentioned above.
# [8] = tested on: HLA-A2; experiment: HLA-A2 expression in U251; type: cell-based, human; details: DAC 1 μM 120 h, TSA 1 μM 24 h
# Experimental: as §1, with “Decitabine (DAC, CAS No.” left out, “-80°C” for “−80°C”, “[…] The cells were then harvested, washed with PBS buffer three times,” for “Human recombinant interleukin (IL) IL-2, IL-4,”, “analyzed by a FACScan flow cytometer (BD Biosciences, Franklin Lakes, NJ, USA) using BD AccuriTM C6 Software (BD Biosciences).” for “human recombinant granulocyte/macrophage colony-stimulating factor (GM-CSF) were purchased from R&D Systems.”
molecule,measurement,setting,value
ALQLDPETL [Peptide P5],"stimulation index (SI), T-cell proliferation, CCK8",[1],can induce T-cell proliferation
same,IL-2 secreted by DC-stimulated T cells,[2],higher IL-2
TLTSFDIHI [Peptide P2],"FI (fluorescence index, HLA-A*0201 binding affinity)",[3],0.877
SVQSESYSV [Peptide P1],"FI (fluorescence index, HLA-A*0201 binding affinity)",[3],0.007
"CCCC(CCC)C(=O)O [VPA, valproic acid]",methylation level of MAGE-D4 promoter region 1,[4],decreased significantly
same,methylation level of MAGE-D4 promoter region 2,[4],decreased significantly
same,total methylation levels of regions 1 and 2 of MAGE-D4 core promoter,[4],decreased significantly
same,methylation level of MAGE-D4 promoter region 1,[5],decreased significantly
VLCLPPRNV [Peptide P7],DC50 (time required for 50% dissociation of the HLA-A*0201/peptide complex),[6],<2 h
SLGPGLRIL [Peptide P3],"FI (fluorescence index, HLA-A*0201 binding affinity)",[3],0.887
ILSNEPWEL [Peptide P4],DC50 (time required for 50% dissociation of the HLA-A*0201/peptide complex),[6],>2 h
same,"stimulation index (SI), T-cell proliferation, CCK8",[1],can induce T-cell proliferation
same,"cytotoxicity of peptide-specific T cells (specific lysis, LDH)",[7],cytotoxicity on the DAC + TSA-treated U251 cells with statistical significance
"Nc1ncn([C@H]2C[C@H](O)[C@@H](CO)O2)c(=O)n1 [DAC, Decitabine]",HLA-A2 levels,[8],elevated HLA-A2 levels with statistical significance
same,methylation level of MAGE-D4 promoter region 1,[4],decreased significantly
same,methylation level of MAGE-D4 promoter region 1,[5],decreased significantly
